Experimental data reported in PubChem BioAssay AID2060486 (Molecular Pharmacology Branch, DTP, NCI, 2025).
pIC50: −log10 of the molar value.

Tested on: IGROV1 complex spheroids (HUVEC, MSC), viability % test/control
Experiment: Anticancer human tumor IGROV1 cell line growth inhibition [GQUAD];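 note: spheroids exposed to compounds for 7 days before readout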
Conditions: for pIC50: curve of first compound; for viability, T/C: stronger effect = lower value
From the text: DNA G-quadruplex Stabilizer Agents in Combinations in Complex Spheroids
A high-throughput screen of multi-cell type tumor spheroids was designed to identify active combinations of DNA G-quadruplex stabilizer agents and targeted small molecules. Complex spheroids include a stromal component modeled by human endothelial cells (HUVEC) and fibroblasts modeled by human mesenchymal stem cells (MSCs). The concentration ranges selected for each drug and investigational agent were based upon clinically achievable concentrations if the clinical Cmax of the agent was known.
Compounds. The drugs and investigational agents: pidnarulex (CX-5461; NSC782164), APTO-253 (NSC789042), BRACO-19 (NSC847499), peposertib (NSC802822), ceralasertib (NSC780249), elimusertib (NSC800525), camonsertib (NSC841442), AZD-1390 (NSC803789), olaparib (NSC753686), talazoparib (NSC767125), ART-558 (NSC835418), sotorasib (NSC818433), MRTX-1133 (NSC836407), SN-38 (NSC673596), topotecan (NSC609699), etoposide (NSC141540), doxorubicin (NSC123127), gemcitabine (NSC613327), 5-fluorouracil (NSC19893), paclitaxel (NSC125973), vemurafenib (NSC761431), panobinostat (NSC761190), R-306465 (JNJ-16241199; NSC773264), adavosertib (NSC754352), TP-3654 (NSC805149), carboplatin (NSC241240), KSQ-4279 (NSC840948), and staurosporine (NSC755774) were obtained from the National Cancer Institute (NCI) Developmental Therapeutics Program Chemical Repository (34). The FDA-approved anticancer drug set is available from the NCI Developmental Therapeutics Program. […] The stock solutions were prepared in dimethyl sulfoxide (DMSO, Sigma-Aldrich, St. Louis, MO, cat. D2650) at 800-fold the tested concentration and stored at -70 degrees C prior to their use. All drugs and investigational agents were tested over a range starting from a high concentration at or near the clinical Cmax and decreasing in half-log increments. If the clinical Cmax for an agent had not been determined, the highest concentration tested was 10 microM.
2.3 Cell Culture. All cells were maintained in an incubator at 37 degrees C and 5% CO2 with 95% humidity. The PDC lines were cultured according to standard operating procedures established by the NCI PDMR. All PDCs were thawed and cultured in Matrigel-coated flasks prepared with a working solution of 1X Ham's F-12 nutrient mix, without supplementation (Invitrogen, cat. 11765054), 100 U/mL penicillin-streptomycin (Invitrogen, cat. 15140122), and 2.5% Matrigel (Corning Inc., cat. 354248) for the first three passages. The 857933-349-R-J2-PDC line was cultured in 6C/Colon 1B media, which includes advanced DMEM/F-12 (Thermo Fisher Scientific, cat. 12634028), 10 mM HEPES (Thermo Fisher Scientific, cat. 15630080), 1X GlutaMAX supplement (Thermo Fisher Scientific, cat. 35050061), 0.1 mg/mL primocin (InvivoGen, cat. ant-pm-2), 10% defined fetal bovine serum, heat inactivated (HyClone Laboratories Inc., cat. SH30070.03HI), 50% L-WRN conditioned media (ATCC, cat. CRL-3276), 1.25 mM N-Acetyl-L-cysteine (Sigma-Aldrich, cat. A9165), 10 mM nicotinamide (Sigma-Aldrich, cat. N0636), 1X B-27 supplement (Thermo Fisher Scientific, cat. 17504044), 1X N-2 supplement (Thermo Fisher Scientific, cat. 17502048), 10 microM Y-27632 dihydrochloride (Tocris Bioscience, cat. 1254), and 50 ng/mL human EGF recombinant protein (Thermo Fisher Scientific, cat. PHG0311). The 485176-168-R4-J1-PDC line was cultured in Panc media, which includes all 6C/Colon 1B media components plus 100 ng/mL human FGF-10 (Thermo Fisher Scientific, cat. 100-26), 500 nM SB-431542 (Selleckchem, cat. S1067), and gastrin (Tocris, cat. 3006).
[…]

[1] = second compound 0.0316 µM, first compound 0.0316 µM
[2] = second compound 0.0316 µM, first compound 0.1 µM
[3] = second compound 0.0316 µM, first compound 0.316 µM
[4] = second compound 0.0316 µM, first compound 1 µM
[5] = second compound 0.0316 µM, first compound 3.16 µM
[6] = second compound 0.0316 µM, first compound 10 µM
[7] = second compound 0.1 µM, first compound 0.0316 µM
[8] = second compound 0.1 µM, first compound 0.1 µM
[9] = second compound 0.1 µM, first compound 0.316 µM
[10] = second compound 0.1 µM, first compound 1 µM
[11] = second compound 0.1 µM, first compound 3.16 µM
[12] = second compound 0.1 µM, first compound 10 µM
[13] = second compound 0.316 µM, first compound 0.0316 µM
[14] = second compound 0.316 µM, first compound 0.1 µM
[15] = second compound 0.316 µM, first compound 0.316 µM
[16] = second compound 0.316 µM, first compound 1 µM
[17] = second compound 0.316 µM, first compound 3.16 µM
[18] = second compound 0.316 µM, first compound 10 µM
[19] = second compound 1 µM, first compound 0.0316 µM
[20] = second compound 1 µM, first compound 0.1 µM
[21] = second compound 1 µM, first compound 0.316 µM
[22] = second compound 1 µM, first compound 1 µM
[23] = second compound 1 µM, first compound 3.16 µM
[24] = second compound 1 µM, first compound 10 µM
[25] = second compound 3.16 µM, first compound 0.0316 µM
[26] = second compound 3.16 µM, first compound 0.1 µM
[27] = second compound 3.16 µM, first compound 0.316 µM
[28] = second compound 3.16 µM, first compound 1 µM
[29] = second compound 3.16 µM, first compound 3.16 µM
[30] = second compound 3.16 µM, first compound 10 µM
[31] = second compound 10 µM, first compound 0.0316 µM
[32] = second compound 10 µM, first compound 0.1 µM
[33] = second compound 10 µM, first compound 0.316 µM
[34] = second compound 10 µM, first compound 1 µM
[35] = second compound 10 µM, first compound 3.16 µM
[36] = second compound 10 µM, first compound 10 µM

Compound: COc1cc(C2c3cc4c(cc3C(OC3OC5COC(C)OC5C(O)C3O)C3COC(=O)C23)OCO4)cc(OC)c1O (stereo unspecified) + Cc1cnc(CNC(=O)c2c(=O)c3ccc(N4CCCN(C)CC4)nc3n3c2sc2ccccc23)cn1
- pIC50 (second compound 0.0316 µM): 7.25
- pIC50 (second compound 0.1 µM): > 7.50
- pIC50 (second compound 0.316 µM): > 7.50
- pIC50 (second compound 1 µM): > 7.50
- pIC50 (second compound 3.16 µM): > 7.50
- pIC50 (second compound 10 µM): > 7.50
- viability, T/C [1]: 67.3%
- viability, T/C [2]: 32.8%
- viability, T/C [3]: 16.3%
- viability, T/C [4]: 13.5%
- viability, T/C [5]: 8.96%
- viability, T/C [6]: 4.09%
- viability, T/C [7]: 37.6%
- viability, T/C [8]: 27.9%
- viability, T/C [9]: 16%
- viability, T/C [10]: 10.6%
- viability, T/C [11]: 8.64%
- viability, T/C [12]: 5.71%
- viability, T/C [13]: 25.1%
- viability, T/C [14]: 19%
- viability, T/C [15]: 14.4%
- viability, T/C [16]: 8.91%
- viability, T/C [17]: 8.97%
- viability, T/C [18]: 5.79%
- viability, T/C [19]: 12.8%
- viability, T/C [20]: 13.7%
- viability, T/C [21]: 13.6%
- viability, T/C [22]: 11%
- viability, T/C [23]: 7.71%
- viability, T/C [24]: 6.49%
- viability, T/C [25]: 9.53%
- viability, T/C [26]: 11.8%
- viability, T/C [27]: 9.99%
- viability, T/C [28]: 9.79%
- viability, T/C [29]: 9.02%
- viability, T/C [30]: 5.67%
- viability, T/C [31]: 9.66%
- viability, T/C [32]: 11%
- viability, T/C [33]: 10.7%
- viability, T/C [34]: 9.61%
- viability, T/C [35]: 9.67%
- viability, T/C [36]: 6.31%

Compound: COc1cccc2c1C(=O)c1c(O)c3c(c(O)c1C2=O)CC(O)(C(=O)CO)CC3OC1CC(N)C(O)C(C)O1 (stereo unspecified) + Cc1cnc(CNC(=O)c2c(=O)c3ccc(N4CCCN(C)CC4)nc3n3c2sc2ccccc23)cn1
- pIC50 (second compound 0.0316 µM): > 7.50
- pIC50 (second compound 0.1 µM): > 7.50
- pIC50 (second compound 0.316 µM): > 7.50
- pIC50 (second compound 1 µM): > 7.50
- pIC50 (second compound 3.16 µM): > 7.50
- pIC50 (second compound 10 µM): > 7.50
- viability, T/C [1]: 40.4%
- viability, T/C [2]: 21.2%
- viability, T/C [3]: 7.47%
- viability, T/C [4]: 4.08%
- viability, T/C [5]: 0.07%
- viability, T/C [6]: 0.9%
- viability, T/C [7]: 29.5%
- viability, T/C [8]: 15.3%
- viability, T/C [9]: 9.07%
- viability, T/C [10]: 3.71%
- viability, T/C [11]: 0.05%
- viability, T/C [12]: 0.74%
- viability, T/C [13]: 18.7%
- viability, T/C [14]: 14.9%
- viability, T/C [15]: 7.44%
- viability, T/C [16]: 3.57%
- viability, T/C [17]: 0.07%
- viability, T/C [18]: 0.73%
- viability, T/C [19]: 11.8%
- viability, T/C [20]: 9.55%
- viability, T/C [21]: 7.95%
- viability, T/C [22]: 3.7%
- viability, T/C [23]: 0.05%
- viability, T/C [24]: 0.66%
- viability, T/C [25]: 10.9%
- viability, T/C [26]: 9.14%
- viability, T/C [27]: 6.91%
- viability, T/C [28]: 2.27%
- viability, T/C [29]: 0.07%
- viability, T/C [30]: 0.41%
- viability, T/C [31]: 11.1%
- viability, T/C [32]: 8.57%
- viability, T/C [33]: 5.52%
- viability, T/C [34]: 1.8%
- viability, T/C [35]: 0.14%
- viability, T/C [36]: 0.45%

Compound: O=C(c1cc(Cc2n[nH]c(=O)c3ccccc23)ccc1F)N1CCN(C(=O)C2CC2)CC1 + Cc1cnc(CNC(=O)c2c(=O)c3ccc(N4CCCN(C)CC4)nc3n3c2sc2ccccc23)cn1
- pIC50 (second compound 0.0316 µM): 5.79
- pIC50 (second compound 0.1 µM): > 7.50
- pIC50 (second compound 0.316 µM): > 7.50
- pIC50 (second compound 1 µM): > 7.50
- pIC50 (second compound 3.16 µM): > 7.50
- pIC50 (second compound 10 µM): > 7.50
- viability, T/C [1]: 58.6%
- viability, T/C [2]: 73%
- viability, T/C [3]: 53.6%
- viability, T/C [4]: 55.8%
- viability, T/C [5]: 43.5%
- viability, T/C [6]: 20.8%
- viability, T/C [7]: 42.1%
- viability, T/C [8]: 39.9%
- viability, T/C [9]: 34%
- viability, T/C [10]: 27.9%
- viability, T/C [11]: 24.2%
- viability, T/C [12]: 17.8%
- viability, T/C [13]: 22.4%
- viability, T/C [14]: 27.7%
- viability, T/C [15]: 24%
- viability, T/C [16]: 23.5%
- viability, T/C [17]: 16.9%
- viability, T/C [18]: 18.1%
- viability, T/C [19]: 14.4%
- viability, T/C [20]: 17.3%
- viability, T/C [21]: 18.9%
- viability, T/C [22]: 16.9%
- viability, T/C [23]: 16%
- viability, T/C [24]: 12.9%
- viability, T/C [25]: 9.91%
- viability, T/C [26]: 10.6%
- viability, T/C [27]: 10.1%
- viability, T/C [28]: 10.6%
- viability, T/C [29]: 11.1%
- viability, T/C [30]: 10.5%
- viability, T/C [31]: 8.62%
- viability, T/C [32]: 11.4%
- viability, T/C [33]: 9.01%
- viability, T/C [34]: 8.13%
- viability, T/C [35]: 9.75%
- viability, T/C [36]: 9.07%
